We go through 27 compounds from patent publication US7057048B2, “Androgen receptor antagonists” (Warner Lambert Company LLC, priority 2003, dated 2006).

SMILES strings stand for the structures.

The target of this assay is T1, androgen receptor (Homo sapiens, UniProt P10275).
T1 sequence (P10275 1-920 Q868H): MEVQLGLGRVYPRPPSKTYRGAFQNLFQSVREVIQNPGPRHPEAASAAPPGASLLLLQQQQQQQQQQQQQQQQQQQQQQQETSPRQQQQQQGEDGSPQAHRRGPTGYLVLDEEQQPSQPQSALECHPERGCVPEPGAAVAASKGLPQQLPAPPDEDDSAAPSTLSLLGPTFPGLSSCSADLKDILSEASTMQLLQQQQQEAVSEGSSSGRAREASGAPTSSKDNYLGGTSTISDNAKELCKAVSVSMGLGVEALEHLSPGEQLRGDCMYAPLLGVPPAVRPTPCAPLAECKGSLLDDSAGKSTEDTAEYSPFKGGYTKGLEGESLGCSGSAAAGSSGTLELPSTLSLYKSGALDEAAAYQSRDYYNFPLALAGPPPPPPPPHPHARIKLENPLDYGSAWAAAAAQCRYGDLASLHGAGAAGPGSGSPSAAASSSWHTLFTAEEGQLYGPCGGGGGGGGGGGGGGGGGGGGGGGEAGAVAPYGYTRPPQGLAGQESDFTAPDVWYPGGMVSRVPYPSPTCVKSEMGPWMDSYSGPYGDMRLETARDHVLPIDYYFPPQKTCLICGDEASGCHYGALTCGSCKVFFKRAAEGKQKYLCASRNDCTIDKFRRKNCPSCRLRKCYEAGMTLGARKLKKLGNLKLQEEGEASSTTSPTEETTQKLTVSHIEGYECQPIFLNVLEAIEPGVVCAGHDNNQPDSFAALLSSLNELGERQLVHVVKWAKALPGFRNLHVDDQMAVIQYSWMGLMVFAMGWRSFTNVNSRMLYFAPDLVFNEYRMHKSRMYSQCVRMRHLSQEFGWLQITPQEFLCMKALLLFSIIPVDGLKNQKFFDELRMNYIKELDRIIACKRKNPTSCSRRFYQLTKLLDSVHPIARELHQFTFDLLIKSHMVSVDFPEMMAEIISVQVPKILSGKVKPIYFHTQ
The experiment in a line: AR Antagonist Cell Assay (MMTV-luciferase reporter, DHT-stimulated). The class given is cell-based. The conditions noted are these: MDA-MB453-MMTV clone 54-19 cells, inhibition of induction by 100 pM DHT, 17 hr. The protocol: The compounds ability to antagonize the effects of androgen on the androgen receptor were determined in the protocol described immediately below.
Experimental Procedure for AR Antagonist Cell Assay
Cell line: MDA-MB453-MMTV clone 54-19. This cell line is a stable transfected cell line with MDA-MB453 cell background (human breast tumor cell expressing high level of androgen receptor). A MMTV minimal promoter containing ARE was first cloned in front of a firefly luciferase reporter gene. Then the cascade was cloned into transfection vector pUV120puro. Electroporation method was used for transfecting MDA-MB-453 cell. Puromycin resistant stable cell line was selected.
Cell Culture Media and Reagents:
Culture medium: DMEM (high glucose, Gibco cat #: 11960-044), 10% FBS, and 1% L-glutamine
Plating medium: DMEM (phenol red free), 10% charcoal treated HyClone serum, 1% L-glutamine
Assay medium: DMEM (phenol red free), 1% charcoal treated HyClone serum, 1% L-glutamine, and 1% penicillin/streptomycin
3×luciferase buffer: 2% beta-mercaptoethanol, 0.6% ATP, 0.0135% luciferine in cell lysis buffer
• 1. Cells are maintained in culture medium, splitting cells when they reach 80–90% confluence • 2. To test compounds, 10,000 cells/well are plated to opaque 96 cell culture plate in 100 ul/well plating medium, culture for overnight at 37° C. in cell culture incubator • 3. Carefully remove plating medium, then add 80 ul/well of pre-warmed assay medium, add 10 ul/well testing compound (final concentration at 10 uM or 1 uM), incubate at 37° C. for 30 minutes • 4. Add 10 ul/well freshly prepared DHT (final concentration at 100 pM) to each well, incubate at 37° C. for 17 hr (overnight) • 5. Add 50 ul/well 3×luciferase buffer, incubate at room temperature for 5 minutes, then count on Luminometer
The fold induction over background by 100 pM DHT in the absence of testing compounds is standardized as 100% and experimental result is expressed as percentage of inhibition by testing compounds.
(In general: Reporter assays use an easily measured gene product as a stand-in for the process of interest.)
`O=c1cc(C(F)(F)F)c2cc(Cc3ccc(S(=O)(=O)N4CCC(O)CC4)cc3)ccc2o1` [Example 56, 6-[4-(4-Hydroxypiperidine-1-sulfonyl)benzyl]-4-trifluoromethylchromen-2-one] registered an IC50 of over 10 µM.

Regarding `COCCN1CCN(S(=O)(=O)c2ccc(Cc3ccc4oc(=O)cc(C(F)(F)F)c4c3)cc2)CC1` [Example 39, 6-{4-[4-(2-Methoxyethyl)piperazine-1-sulfonyl]benzyl}-4-trifluoromethylchromen-2-one], half-maximal inhibition (IC50) was put at 9.4 µM.

`O=c1cc(C(F)(F)F)c2cc(Cc3ccc(S(=O)(=O)N4CCCCC4CCO)cc3)ccc2[nH]1` (stereo not drawn) [Example 17, 6-{4-[2-(2-Hydroxyethyl)piperidine-1-sulfonyl]benzyl}-4-trifluoromethyl-1H-quinolin-2-one] gave a concentration for half-maximal inhibition (IC50) of over 10 µM.

Compound `O=c1cc(C(F)(F)F)c2cc(Cc3ccc(S(=O)(=O)N4CCC(O)(c5cccs5)CC4)cc3)ccc2o1` [Example 33, 6-[4-(4-Hydroxy-4-thiophen-2-ylpiperidine-1-sulfonyl)benzyl]-4-trifluoromethylchromen-2-one] came in with a half-inhibitory concentration (IC50) of 8.6 µM.

On to `O=c1cc(C(F)(F)F)c2cc(Cc3ccc(S(=O)(=O)N4CCC(CO)CC4)cc3)ccc2o1` [Example 64, 6-[4-(4-Hydroxymethyl-piperidine-1-sulfonyl)benzyl]-4-trifluoromethylchromen-2-one], for which the half-inhibitory concentration (IC50) came out at 2.5 µM.

`O=c1cc(C(F)(F)F)c2cc(Cc3ccc(S(=O)(=O)N4CCc5ccccc5C4)cc3)ccc2[nH]1` [Example 2, 6-[4-(3,4-Dihydro-1H-isoquinoline-2-sulfonyl)benzyl]-4-trifluoromethyl-1H-quinolin-2-one] displayed a concentration for half-maximal inhibition (IC50) of 6.8 µM.

`COc1cc2c(cc1OC)CN(S(=O)(=O)c1ccc(Cc3ccc4oc(=O)cc(C(F)(F)F)c4c3)cc1)CC2` [Example 35, 6-[4-(6,7-Dimethoxy-3,4-dihydro-1H-isoquinoline-2-sulfonyl)benzyl]-4-trifluoromethylchromen-2-one]: the midpoint of inhibition, the IC50, lay at 1.2 µM.

The compound `CC(C)N(CCN1CCN(S(=O)(=O)c2ccc(Cc3ccc4oc(=O)cc(C(F)(F)F)c4c3)cc2)CC1)C(C)C` [Example 44, 6-{4-[4-(2-Diisopropylamino-ethyl)piperazine-1-sulfonyl]benzyl}-4-trifluoromethylchromen-2-one] returned an IC50 of 5.2 µM.

`CCN1CCN(S(=O)(=O)c2ccc(Cc3ccc4[nH]c(=O)cc(C(F)(F)F)c4c3)cc2)CC1` [Example 8, 6-[4-(4-Ethylpiperazine-1-sulfonyl)benzyl]-4-trifluoromethyl-1H-quinolin-2-one] had an IC50 of over 10 µM.

The compound `O=c1cc(C(F)(F)F)c2cc(Cc3ccc(S(=O)(=O)N4CCCC5CCCCC54)cc3)ccc2[nH]1` (stereo not drawn) [Example 19, 6-[4-(Octahydroquinoline-1-sulfonyl)benzyl]-4-trifluoromethyl-1H-quinolin-2-one] had an IC50 of over 10 µM.

Consider `COc1ccc(N2CCN(S(=O)(=O)c3ccc(Cc4ccc5oc(=O)cc(C(F)(F)F)c5c4)cc3)CC2C)cc1` (stereo not drawn) [Example 32, 6-{4-[4-(4-Methoxyphenyl)-3-methylpiperazine-1-sulfonyl]benzyl}-4-trifluoromethylchromen-2-one], for which the half-inhibitory concentration (IC50) is 9.3 µM.

`CC1CCN(S(=O)(=O)c2ccc(Cc3ccc4oc(=O)cc(C(F)(F)F)c4c3)cc2)CC1` [Example 49, 6-[4-(4-Methylpiperidine-1-sulfonyl)benzyl]-4-trifluoromethylchromen-2-one]: the IC50 was over 10 µM.

Turning to `O=c1cc(C(F)(F)F)c2cc(Cc3ccc(S(=O)(=O)N4CCCc5ccccc54)cc3)ccc2[nH]1` [Example 26, 6-[4-(3,4-Dihydro-2H-quinoline-1-sulfonyl)benzyl]-4-trifluoromethyl-1H-quinolin-2-one], the IC50 is 2 µM.

As for `O=c1cc(C(F)(F)F)c2cc(Cc3ccc(S(=O)(=O)N4CCSC4)cc3)ccc2o1` [Example 46, 6-[4-(Thiazolidine-3-sulfonyl)benzyl]-4-trifluoromethylchromen-2-one], the IC50 is over 10 µM.

`O=c1cc(C(F)(F)F)c2cc(Cc3ccc(S(=O)(=O)N4CCC4)cc3)ccc2[nH]1` [Example 25, 6-[4-(Azetidine-1-sulfonyl)benzyl]-4-trifluoromethyl-1H-quinolin-2-one]: 2.9 µM corresponded to half-maximal inhibition (IC50).

Compound `O=c1cc(C(F)(F)F)c2cc(Cc3ccc(S(=O)(=O)N4CCCCCC4)cc3)ccc2o1` [Example 57, 6-[4-(Azepane-1-sulfonyl)benzyl]-4-trifluoromethylchromen-2-one] yielded an IC50 of 6.8 µM.

In turn, `O=c1cc(C(F)(F)F)c2cc(Cc3ccc(S(=O)(=O)N4CCCCC4CO)cc3)ccc2[nH]1` (stereo not drawn) [Example 7, 6-[4-(2-Hydroxymethylpiperidine-1-sulfonyl)benzyl]-4-trifluoromethyl-1H-quinolin-2-one] displayed an IC50 of 9.8 µM.

`O=c1cc(C(F)(F)F)c2cc(Cc3ccc(S(=O)(=O)N4CCCCCC4)cc3)ccc2[nH]1` [Example 21, 6-[4-(Azepane-1-sulfonyl)benzyl]-4-trifluoromethyl-1H-quinolin-2-one] yielded a half-inhibitory concentration (IC50) of 9.2 µM.

In the case of `O=c1cc(C(F)(F)F)c2cc(Cc3ccc(S(=O)(=O)N4Cc5ccccc5C4)cc3)ccc2o1` [Example 34, 6-[4-(1,3-Dihydroisoindole-2-sulfonyl)benzyl]-4-trifluoromethylchromen-2-one], half-maximal inhibition (IC50) was put at 4.5 µM.

The compound `O=c1cc(C(F)(F)F)c2cc(Cc3ccc(S(=O)(=O)N4CCN(c5ccncc5)CC4)cc3)ccc2o1` [Example 50, 6-[4-(4-Pyridin-4-ylpiperazine-1-sulfonyl)benzyl]-4-trifluoromethylchromen-2-one] had a half-maximal inhibitory concentration (IC50) of 1.6 µM.

Compound `O=c1cc(C(F)(F)F)c2cc(Cc3ccc(S(=O)(=O)N4CCCCC4c4cccnc4)cc3)ccc2o1` (stereo not drawn) [Example 48, 6-[4-(3,4,5,6-Tetrahydro-2H-[2,3′]bipyridinyl-1-sulfonyl)benzyl]-4-trifluoromethylchromen-2-one] showed an IC50 of 8.9 µM.

`O=c1cc(C(F)(F)F)c2cc(Cc3ccc(S(=O)(=O)N4CCCC4CO)cc3)ccc2[nH]1` (stereo not drawn) [Example 18, 6-[4-(2-Hydroxymethylpyrrolidine-1-sulfonyl)benzyl]-4-trifluoromethyl-1H-quinolin-2-one] came in with a half-maximal inhibitory concentration (IC50) of 8 µM.

With `CC1CCCCN1S(=O)(=O)c1ccc(Cc2ccc3oc(=O)cc(C(F)(F)F)c3c2)cc1` (stereo not drawn) [Example 58, 6-[4-(2-Methylpiperidine-1-sulfonyl)benzyl]-4-trifluoromethylchromen-2-one], the IC50 was 9.8 µM.

Compound `O=c1cc(C(F)(F)F)c2cc(Cc3ccc(S(=O)(=O)N4CCSC4)cc3)ccc2[nH]1` [Example 12, 6-[4-(Thiazolidine-3-sulfonyl)benzyl]-4-trifluoromethyl-1H-quinolin-2-one] displayed an IC50 of over 10 µM.

For the compound `O=c1cc(C(F)(F)F)c2cc(Cc3ccc(S(=O)(=O)N4CCC(N5CCCC5)CC4)cc3)ccc2o1` [Example 30, 6-[4-(4-Pyrrolidin-1-ylpiperidine-1-sulfonyl)benzyl]-4-trifluoromethylchromen-2-one], the half-maximal inhibitory concentration (IC50) is over 10 µM.

Take `O=c1cc(C(F)(F)F)c2cc(Cc3ccc(S(=O)(=O)N4CCCCC4CO)cc3)ccc2o1` (stereo not drawn) [Example 37, 6-[4-(2-Hydroxymethyl-piperidine-1-sulfonyl)benzyl]-4-trifluoromethylchromen-2-one]: half-maximal inhibition (IC50) required 5.3 µM.

Consider `O=c1cc(C(F)(F)F)c2cc(Cc3ccc(S(=O)(=O)N4CCCN(CCc5ccccc5)CC4)cc3)ccc2o1` [Example 54], for which the IC50 came out at 2.5 µM.

What is called IC50 is the concentration that gives 50% inhibition.
